Data reported in paper PMC11150261, “Evaluation of antibacterial, cytotoxicity, and apoptosis activity of novel chromene-sulfonamide hybrids synthesized under solvent-free conditions and 3D-QSAR modeling studies” (Scientific Reports, 2024).
Converted amounts (≈) assume the structure as drawn. “Also recorded” adds a separate entry of the source. Where two headings read alike, the source gives them in different places.

Assays:
E. coli ATCC 25922 = experiment: Broth microdilution MIC; type: cell-based; conditions: for MIC: Escherichia coli, ATCC25922; for MIC effect on E. coli: SAR effect diagram
Method: (§1) A broth microdilution method was utilized to explore the minimum inhibitory concentrations (MIC) of all the newly synthesized compounds against E. coli ATCC 25922 and S. aureus ATCC 25923. Test compounds were prepared using dimethyl sulfoxide (DMSO) as a stock solution, followed by serial dilutions in Mueller Hinton broth containing up to one percent DMSO. At the end, a diluted bacterial suspension from a 0.5 McFarland tube was added to all the wells (the final volume of each well was 1 × 10^5 CFU/ml). In the growth control, a culture medium with bacteria was used as a positive control, and a culture medium without bacteria was used as a negative control (sterility control). The MIC was the lowest concentration of the synthesized compounds that produced no growth on the plate. Sulfisoxazole, functioning as a sulfonamide antibiotic, and gentamicin were employed in a comparative analysis of antibacterial activity, cytotoxicity, and apoptosis assessment.

S. aureus ATCC 25923 = experiment: Broth microdilution MIC; type: cell-based; conditions: for MIC effect on S. aureus: SAR effect diagram, Table 6; for MIC: Staphylococcus aureus, ATCC25923
Method: as §1

fibroblast L929 cells = experiment: Cytotoxicity assay by MTT; type: cell-based; conditions: Mus musculus, fibroblast L929 cell line, 24 h
Method: MTT was applied to evaluate the cytotoxicity of the newly synthesized compounds against fibroblast L929 cells (Pasteur Institute, Tehran, Iran). Briefly, 100 μl of cell suspension (1 × 10^4 cells/well) in RPMI 1640 medium, as seeded in 96-well microplates and incubated for 24 h (37 °C, 5% CO2 air humidified). After removing the old media, 100 µl of each of the newly synthesized compounds was added to each well at different concentrations. The plates were incubated for another 24 h in the same condition. To determine the positive and negative controls, doxorubicin and DMSO were used. Cell survival was determined by adding 10 µL of an MTT solution (5 mg/ml in PBS) to each well and incubating at 37 °C for 3 h. The previous MTT-containing media was then removed, and 100 µL DMSO was pipetted into each well to dissolve the produced formazan crystals. Using an ELISA plate reader (Startfix-2100, Awareness, USA), absorbance was measured at 570 nm. By plotting the percentage of cytotoxicity versus concentration of the produced compounds, the concentrations that inhibit half of the cell population (IC50) were determined. A mean and standard deviation (SD) are used to represent the results. The percentage cell viability was calculated using the formula: Viability=Absorbance \, of \, treated \, cells-background \, absorbance(b)/Absorbance \, of \, untreated \, cells(c)-background \, absorbance(b)×100 where (b) = blank, and (c) = control.

[1] = Apoptosis Annexin V binding assay (flow cytometry); type: cell-based; conditions: mouse, L929 fibroblast cells; L929, IC50 concentration, Annexin V-FITC/PI
Method: (§2) To detect apoptosis, the Annexin V binding assay was used. The assay was performed according to the manufacturer's instructions using a FITC Annexin V Apoptosis Detection Kit with PI from BioLegend® (San Diego, California). To conduct this test, the fibroblast L929 cell line (Pasteur Institute, Tehran, Iran) was treated with various concentrations of the newly synthesized compounds and then incubated for 24 h at 37 °C with 5% CO2. Subsequently, each well's supernatant was removed and the cells were washed with PBS. Each well was then filled with 500 μl of Annexin-binding buffer (10 mM HEPES, 140 mM NaCl, and 2.5 mM CaCl2, pH 7.4) and 10 μl of Annexin V and PI. For 15 min, the plates were incubated at room temperature and kept away from light. After incubation, using a BD FACSCalibur flow cytometer (Biosciences, San Jose, CA, USA), the cells were examined after incubation. FlowJo software (version 10.5.3, TreeStar Incorporated, Ashland, OR) was used to analyze flow cytometry data.

[2] = system: fibroblast L929 cell line; experiment: Apoptosis Annexin V binding assay (flow cytometry); type: cell-based; conditions: for induced cell death: L929 cells, 24 h, IC50 concentration of each compound; for apoptotic effects: at the IC50 concentration
Method: as §2

[3] = Table 6, antibacterial activity against E. coli, read-out: MIC for E. coli ATCC 25922
[4] = microdilution method, read-out: Minimum inhibitory concentrations (MIC) E. coli ATCC 25922
[5] = Table 7, read-out: MIC for S. aureus
[6] = microdilution method, read-out: Minimum inhibitory concentrations (MIC) S. aureus ATCC 25923

SMILES	MIC (E. coli ATCC 25922; [3])	MIC (E. coli ATCC 25922; [4])	MIC effect on E. coli (E. coli ATCC 25922)	MIC effect on S. aureus (S. aureus ATCC 25923)	MIC (S. aureus ATCC 25923; [5])	MIC (S. aureus ATCC 25923; [6])	IC50 (fibroblast L929 cells)	viability at 24 h [1]	induced cell death [2]	melting point	antibacterial effect on E. coli (MIC results) (E. coli ATCC 25922)	antibacterial effect on S. aureus (MIC results) (S. aureus ATCC 25923)	apoptotic effects [2]
COc1ccc(C2C(C#N)=C(N)Oc3cc(NS(=O)(=O)c4ccc(C)cc4)ccc32)cc1 (stereo not drawn) [1b, N-[2-amino-3-cyano-4-(4-methoxy-phenyl)-4H-chromene-7-yl]-4-methyl-benzene sulfonamide]	256 µg/mL (≈ 572 µM)	256 µg/mL (≈ 572 µM)	Neutral	Negative	> 512 µg/mL	> 512 µg/mL	139 µg/mL (≈ 311 µM)	55%	42.29%				
COc1ccccc1C1C(C#N)=C(N)Oc2cc(NS(=O)(=O)c3ccc(C)cc3)ccc21 (stereo not drawn) [2b, N-[2-amino-3-cyano-4-(2-methoxy-phenyl)-4H-chromene-7-yl]-4-methyl-benzene sulfonamide]	128 µg/mL (≈ 286 µM)	128 µg/mL (≈ 286 µM)	Positive	Negative	> 512 µg/mL	> 512 µg/mL	229 µg/mL (≈ 512 µM)			180 to 183 °C			
COc1ccc(C2C(C#N)=C(N)Oc3cc(NS(=O)(=O)c4ccc(C)cc4)ccc32)cc1OC (stereo not drawn) [3b, N-[2-amino-3-cyano-4-(3,4-dimethoxy-phenyl)-4H-chromene-7-yl]-4-methyl-benzene sulfonamide]	> 512 µg/mL	> 512 µg/mL	neutral or negative; also recorded: Negative	Negative	> 512 µg/mL	> 512 µg/mL	219 µg/mL (≈ 459 µM)			127 to 130 °C			
Cc1ccc(S(=O)(=O)Nc2ccc3c(c2)OC(N)=C(C#N)C3c2ccc(Cl)cc2)cc1 (stereo not drawn) [4b, N-[2-amino-3-cyano-4-(4-chloro-phenyl)-4H-chromene-7-yl]-4-methyl-benzene sulfonamide]	128 µg/mL (≈ 283 µM)	128 µg/mL (≈ 283 µM)	Positive	Neutral	256 µg/mL (≈ 566 µM)	256 µg/mL (≈ 566 µM)	152 µg/mL (≈ 336 µM)	77.4%	22.2%				
CC(=O)Nc1ccc(S(=O)(=O)Nc2ccc3c(c2)OC(N)=C(C#N)C3c2ccccc2)cc1 (stereo not drawn) [5b, N-[4-(2-amino-3-cyano-4-phenyl-4H-chromen-7-ylsulfamoyl)-phenyl]-acetamide]	128 µg/mL (≈ 278 µM)	128 µg/mL (≈ 278 µM)	Positive	Positive	128 µg/mL (≈ 278 µM)	128 µg/mL (≈ 278 µM)	173 µg/mL (≈ 376 µM)			240 to 243 °C			
CC(=O)Nc1ccc(S(=O)(=O)Nc2ccc3c(c2)OC(N)=C(C#N)C3c2cccc(Oc3ccccc3)c2)cc1 (stereo not drawn) [6b, N-[4-[2-amino-3-cyano-4-(3-phenoxy-phenyl)-4H-chromene-7-ylsulfamoyl]-phenyl}-acetamide]	64 µg/mL (≈ 116 µM)	64 µg/mL (≈ 116 µM)	Positive	Neutral	256 µg/mL (≈ 463 µM)	256 µg/mL (≈ 463 µM)	114 µg/mL (≈ 206 µM)	46%	53.85%		robust antibacterial effect	robust antibacterial effect	
CC(=O)Nc1ccc(S(=O)(=O)Nc2ccc3c(c2)OC(N)=C(C#N)C3c2ccc(F)cc2)cc1 (stereo not drawn) [7b, N-[4-[2-amino-3-cyano-4-(4-fluoro-phenyl)-4H-chromene-7-ylsulfamoyl]-phenyl}-acetamide]	128 µg/mL (≈ 267 µM)	128 µg/mL (≈ 267 µM)	Positive	Positive	128 µg/mL (≈ 267 µM)	128 µg/mL (≈ 267 µM)	182 µg/mL (≈ 380 µM)			230 to 233 °C			
COc1ccc(C2C(C#N)=C(N)Oc3cc(NS(=O)(=O)c4ccc(NC(C)=O)cc4)ccc32)cc1OC (stereo not drawn) [9b, N-[4-[2-amino-3-cyano-4-(3,4-dimethoxy-phenyl)-4H-chromene-7-ylsulfamoyl]-phenyl}-acetamide]	256 µg/mL (≈ 492 µM)	256 µg/mL (≈ 492 µM)	neutral or negative; also recorded: Neutral	Negative	> 512 µg/mL	> 512 µg/mL	234 µg/mL (≈ 450 µM)			235 to 238 °C			
CSc1ccc(C2C(C#N)=C(N)Oc3cc(NS(=O)(=O)c4ccccc4)ccc32)cc1 (stereo not drawn) [10b, N-(2-amino-3-cyano-4-(4-(methylthio)phenyl)-4H-chromen-7-yl)benzenesulfonamide]	256 µg/mL (≈ 569 µM)	256 µg/mL (≈ 569 µM)	neutral or negative; also recorded: Neutral	Negative	> 512 µg/mL	> 512 µg/mL	247 µg/mL (≈ 549 µM)			135 to 138 °C			
N#CC1=C(N)Oc2cc(NS(=O)(=O)c3ccccc3)ccc2C1c1ccccc1F (stereo not drawn) [11b, N-(2-amino-3-cyano-4-(2-fluorophenyl)-4H-chromen-7-yl) benzenesulfonamide]	256 µg/mL (≈ 607 µM)	256 µg/mL (≈ 607 µM)	neutral or negative; also recorded: Neutral	Neutral	256 µg/mL (≈ 607 µM)	256 µg/mL (≈ 607 µM)	162 µg/mL (≈ 384 µM)			122 to 125 °C			
CNC(C)C1CCC(N)C(OC2C(N)CC(N)C(OC3OCC(C)(O)C(NC)C3O)C2O)O1 (stereo not drawn) [Gentamicin, reference compound]		4 µg/mL (≈ 8.38 µM)				4 µg/mL (≈ 8.38 µM)	182 µg/mL (≈ 381 µM)						neither Sulfisoxazole nor Gentamicin demonstrated apoptotic effects
Cc1noc(NS(=O)(=O)c2ccc(N)cc2)c1C [Sulfisoxazole, reference compound]		256 µg/mL (≈ 958 µM)				256 µg/mL (≈ 958 µM)	218 µg/mL (≈ 816 µM)						neither Sulfisoxazole nor Gentamicin demonstrated apoptotic effects
